{
  "source": "patent US11426372B2",
  "about": "“Glycolic acid protects against ischemic insults” (priority 2015, dated 2022)",
  "key": {"[1]": {"conditions": "estimated; cited from earlier work"}, "Mice [2]": {"test_system": "Mice", "experiment": "Transient filament MCA occlusion model (fMCAo) with infarct volumetry", "format": "in vivo, mouse", "description": "Transient filament MCA occlusion model (fMCAo): Mice are anaesthetized with isoflurane delivered in a mixture of 30% O2 and 70% N2O. An incision is made between the ear and the eye in order to expose the temporal bone. A laser Doppler probe is affixed to the skull above the MCA territory, and mice are placed in the supine position. An incision is made in the midline neck region, and the common carotid artery and left external carotid artery are isolated and ligated; a 2-mm silicon-coated filament (Doccol, #701912PKRe) is inserted into the internal carotid artery, and MCA occlusion is confirmed by a corresponding decrease in blood flow (i.e., a decrease in the laser Doppler flow signal). After 60 minutes of occlusion the filament is removed and either the vehicle, or 5, 10, 20 or 40 mM of GA (concentration for the total expected infact area) is injected. […]\nInfarct volumetry: Brains are removed 24 and 72 hours after stroke induction and frozen on powdered dry ice. […] Infarct area is measured in each section using ImageJ software (NIH). In the fMCAo model, an edema correction for infarct volume is calculated using the following formula: (Ischemic area)=(Direct lesion volume)−[(Ipsilateral hemisphere)−(Contralateral hemisphere)] was performed. The total infarct volume is calculated by integrating the measured areas and intervals between the sections."}, "cardiomyocytes": {"test_system": "cardiomyocytes", "experiment": "Ischaemia-reperfusion in isolated cardiomyocytes", "format": "cell-based, mouse", "conditions": "simulated ischaemia-reperfusion", "protocol": "Ischaemia-reperfusion in isolated cardiomyocytes: Freshly isolated cardiomyocytes are obtained from mouse hearts by retrograde collagenase perfusion. Rhod-shaped calcium tolerant cardiomyocytes are selected by differential centrifugation and albumin gradient and are plated on laminin-coated glass bottom coverslips (for confocal studies) or on 4% fetal calf serum pretreated multiwell dishes. To simulate IR in cardiomyocytes, two independent approaches are used: anoxic workstation under controlled atmosphere of 0% 02-5% H2 at 37° C. (Invivo2 Workstation Ruskinn, Bridgend, UK) and microscope-adapted microperfusion chamber (RC-43C/BS4 64-0371 Harvard Apparatus, Holliston, Mass., USA). For the anoxic workstation, cardiomyocytes are plated in 96-wells dishes, placed within the anoxic atmosphere and incubated for 15 min with glucose-free acidic ischaemic buffer (previously deoxygenated in an autoclave and bubbled with N2 for 20 min) containing (in mmol/l): 140 NaCl, 3.6 KCl, 1.2 MgSO4, 1 CaCl2, 20 HEPES, pH 6.4, and supplemented with 4 μmol/l resazurin, 100 μmol/l ascorbic acid, 0.5 mmol/l dithionite and 100 U/ml superoxide dismutase. For reperfusion, ischaemic buffer is washed out and oxygenated, glucose-containing control buffer (pH 7.4) is added for 10 min. […]"}, "primary cortical neurons": {"test_system": "primary cortical neurons", "experiment": "In vitro model of stroke: nuclear size (apoptotic nuclei) of cortical neurons 24 hours after ischemia", "format": "cell-based, mouse", "conditions": "for number of apoptotic neurons (nuclear size <30 μm2): vs non-treated neurons during ischemia", "description": "(§1) In order to mimic neuronal ischemia in vitro, primary cortical neurons were culture in vitro for 6 days. After this time either a total ischemia or a partial ischemia were performed.\n(§2) Total ischemia: on the day of ischemia medium was changed to PBS (pH=6.5) that had been previously bubbled with N2 to remove all O2. In the case of total ischemia, in order to ensure total lack of oxygen in the PBS, dithionite was added to the PBS to capture the remaining diluted O2. This process ensured the absence of both nutrients and O2 as it would be expected at the core of a stroke.\n(§3) Penumbra: to mimic penumbra, normal medium was changed to a mixture of medium without antioxidants and PBS (50:50) and bubbled with N2 to remove diluted O2.\n(§4) In both protocols neurons were then placed inside a gas chamber filled with N2 and left there for 45 minutes (ischemia) or 1 hour (penumbra). In order to mimic reperfusion, PBS or medium/PBS were then substituted with medium without antioxidants and left in the incubator overnight.\n(§5) Normoxia: to mimic normoxia, normal medium was changed with normal medium without antioxidants and placed in the incubator under normal conditions for 45 minutes or 1 hour. Then medium was exchanged again with normal medium and left overnight in the incubator.\n(§6) In all conditions neurons were fixed and stained with DRAQS (a nuclear marker) and NeuN (a neuronal marker) on the next day. Images were taking with an OPERA microscope and analysed with the help of FIJI Image analysis software. The more reliable outcome parameter to detect apoptosis was the surface of the nuclei in μm2 and the number of neurons alive after 24 hours. As it can be observed in FIGS. 1 and 2, the frequency distribution of nuclear sizes dramatically changed between normoxia and ischemia without treatment."}, "mouse cortical neurons [3]": {"test_system": "mouse cortical neurons", "experiment": "In vitro model of stroke: LDH released to the media (PIERCE LDH cytotoxicity assay)", "format": "cell-based", "conditions": "for concentration of LDH in the media 24 hours after the ischemic insult: 45 minutes ischemic insult, vs ischemic non-treated neurons, p<0.05", "description": "as §1, §2, §3, §4, §5\nAdditionally, the amount of LDH released to the media was determined. LDH is released to the media during necrosis (immediate cell death after an insult, 0-6 hours after insult) and in the late stages of apoptosis in vitro (6 to 24 hours after insult) through the disruption of the plasmatic membrane. For this we used the PIERCE LDH CYTOTOXICITY ASSAY from Life Technologies."}, "mouse cortical neurons [4]": {"test_system": "mouse cortical neurons", "experiment": "In vitro model of stroke: number of cortical neurons alive / survival rate 24 hours after ischemia", "format": "cell-based", "conditions": "for survival rate of mouse cortical neurons 24 hours after ischemic insult: 45 minutes ischemic insult, P<0.05; for number of cortical neurons alive / survival rate 24 hours after ischemia: penumbra like conditions, 60 minutes ischemic insult, P<0.001", "description": "as §1, §2, §3, §4, §5, §6"}, "Mice [5]": {"test_system": "Mice", "experiment": "In vivo model of limb ischemia (unilateral femoral ligatures)", "design": "species or system mouse", "conditions": "injected systemically when ligatures are removed or before ligation", "description": "In vivo model of limb ischemia: Mice are submitted to unilateral femoral ligatures for a few hours (4-5) to a few days. Glycolic acid or vehicle are injected systemically when the ligatures are removed. Alternatively, glycolic acid is given before ligation systemically. Ischemia is confirmed by clinical scores (tissue and functional damages by gait analysis) and methoxyisobutylisonitrile (MIBI) scintigraphies at different days 0, 4, 6, 10, 20, and 30. Histological analysis is also performed to determine the extension of the ischemia."}, "mouse hearts": {"test_system": "mouse hearts", "experiment": "Ischaemia-reperfusion in perfused hearts (Langendorff)", "conditions": "60 min global ischaemia, 60 min reperfusion with 5, 10, 20 or 40 mM glycolic acid", "description": "Ischaemia-reperfusion in perfused hearts: Ischemia reperfusion in perfused hearts is performed. After sodium pentobarbital overdose (150 mg/kg i. p.), mouse hearts are quickly excised and perfused through the aorta in a Langendorff apparatus with a modified Krebs-Henseleit bicarbonate buffer (in mmol/l: 140 NaCl, 24 NaHCO3, 2.7 KCl, 0.4 KH2PO4, 1 MgSO4, 1.8 CaCl2 and 11 glucose, 95% O2-5% CO2 at 37° C.) at constant flow perfusion pressure of 80 mmHg. Left ventricular (LV) pressure is monitored with a water-filled latex balloon inserted into the LV and inflated to obtain an end-diastolic pressure (LVEDP) of 6-8 mmHg. LV developed pressure (LVdevP) is calculated as the difference between LV systolic pressure and LVEDP. After 30 minutes (min) of normoxic perfusion, mouse hearts are subjected to 60 min of normothermic global ischaemia followed by 60 min of reperfusion with vehicle or 5, 10, 20 or 40 mM glycolic acid. Lactate dehydrogenase (LDH) activity is spectrophotometrically measured in samples collected from the coronary effluent at different times throughout the perfusion period and was considered an indirect measure of necrosis. After 60 min of reperfusion, heart slices were incubated in […] to outline the area of necrosis. Hearts submitted to normoxic perfusion during 120 min served as time control series. […]"}, "Rabbits": {"test_system": "Rabbits", "experiment": "Model of intestinal ischemia (mesenteric ligation)", "format": "in vivo, rabbit", "conditions": "injected intraarterially upon removal of the ligation or systemically before ligation", "protocol": "Rabbits are anesthetized with 3% barbital, 30-35 mg/intravenous injections. The small intestine is reflected to the left of the abdominal incision and then the SMA and SMV are identified. Mesenteric ischemia is confirmed when the mesenteric pulsation is lost and the intestine becomes pale. Ligation is maintained for 2, 4 and 6 hours. […] After removing the ligation, the animal is led free for 1 and 3 days and then is intracardially perfused. Intestinal samples are embedded in paraffin and sections are stained with a nuclear staining. Nuclear size distribution is analysed in different ischemic areas and compared to that of non-ischemic areas."}},
  "note": "Entries after “also recorded” stand apart in the source; their conditions may differ.",
  "data": [
    {"smiles": "OCCOCCO", "note": "[diethylene glycol]", "values": [
      {"measurement": "minimum toxic dose", "setting": "[1]", "value": "0.14 mg glycolic acid per kg of body weight"}
    ]},
    {"smiles": "O=C(O)CO", "note": "[glycolic acid, 2-hydroxyethanoic acid]", "values": [
      {"measurement": "decrease in blood flow", "setting": "Mice [2]; 5, 10, 20 or 40 mM GA injected after 60 minutes of occlusion", "value": "less severe decrease in blood flow"},
      {"measurement": "infarct volume", "setting": "Mice [2]; brains removed 24 and 72 hours after stroke induction", "value": "reduce the infarct volume size"},
      {"measurement": "number of cardiomyocytes alive 24 hours after ischemia", "setting": "cardiomyocytes", "value": "increased number of cardiomyocytes alive"},
      {"measurement": "more normal size nuclei (nuclear surface >30 μm2) 24 hours after ischemia", "setting": "primary cortical neurons; 5 mM pretreatment or 10 and 20 mM during reperfusion, vs control neurons that underwent ischemia without treatment", "value": "up to 65%"},
      {"measurement": "number of apoptotic neurons (nuclear size <30 μm2)", "setting": "primary cortical neurons; 10 mM during reperfusion, p<0.01", "value": "reduces the number of apoptotic neurons"},
      {"measurement": "shift of the nuclear size to smaller apoptotic nuclei induced by ischemia", "setting": "primary cortical neurons; 10 mM glycolic acid during reperfusion", "value": "partially reversed"},
      {"measurement": "number of apoptotic neurons (nuclear size <30 μm2)", "setting": "primary cortical neurons; 20 mM during reperfusion, p<0.01", "value": "reduces the number of apoptotic neurons"},
      {"measurement": "shift of the nuclear size to smaller apoptotic nuclei induced by ischemia", "setting": "primary cortical neurons; 20 mM glycolic acid during reperfusion", "value": "partially reversed"},
      {"measurement": "shift of the nuclear size to smaller apoptotic nuclei induced by ischemia", "setting": "primary cortical neurons; 4 days pretreatment with 5 mM glycolic acid", "value": "partially reversed"},
      {"measurement": "protective effect (rescue)", "setting": "primary cortical neurons; penumbra conditions", "value": 100, "unit": "%"},
      {"measurement": "number of apoptotic neurons (nuclear size <30 μm2)", "setting": "primary cortical neurons; pre-treatment with 5 mM, p<0.05", "value": "reduces the number of apoptotic neurons"},
      {"measurement": "shift of the nuclear size to smaller apoptotic nuclei induced by ischemia", "setting": "primary cortical neurons; pretreatment with 2.5 mM glycolic acid", "value": "partially reversed"},
      {"measurement": "concentration of LDH in the media 24 hours after the ischemic insult", "setting": "mouse cortical neurons [3]; 2.5 mM during reperfusion", "value": "decrease the concentration of LDH significantly; also recorded: reduces apoptosis"},
      {"measurement": "concentration of LDH in the media 24 hours after the ischemic insult", "setting": "mouse cortical neurons [3]; 5 mM during reperfusion", "value": "decrease the concentration of LDH significantly; also recorded: reduces apoptosis"},
      {"measurement": "concentration of LDH in the media", "setting": "mouse cortical neurons [3]; concentrations lower than 5 mM given during reperfusion", "value": "decreased the concentration of LDH in the media"},
      {"measurement": "effect on LDH levels in normoxia", "setting": "mouse cortical neurons [3]; normoxic conditions, 2.5 and 5 mM", "value": "did not observe any difference between treatments; also recorded: cannot be observed"},
      {"measurement": "survival rate of mouse cortical neurons 24 hours after ischemic insult", "setting": "mouse cortical neurons [4]; 2.5 mM during reperfusion", "value": "increases the survival rate"},
      {"measurement": "survival rate of mouse cortical neurons 24 hours after ischemic insult", "setting": "mouse cortical neurons [4]; 5 mM during reperfusion", "value": "increases the survival rate"},
      {"measurement": "survival rate of mouse cortical neurons 24 hours after ischemic insult", "setting": "mouse cortical neurons [4]; 5 mM during reperfusion, listed as GA", "value": "enough to rescue the effect of the ischemia"},
      {"measurement": "number of cortical neurons alive / survival rate 24 hours after ischemia", "setting": "mouse cortical neurons [4]; 10 mM during reperfusion", "value": "increased cortical neurons survival; also recorded: increases the survival rate"},
      {"measurement": "number of cortical neurons alive / survival rate 24 hours after ischemia", "setting": "mouse cortical neurons [4]; 20 mM during reperfusion", "value": "increases the survival rate"},
      {"measurement": "survival of mouse cortical neurons", "setting": "mouse cortical neurons [4]; concentrations lower than 5 mM given during reperfusion (data not shown)", "value": "did not increase survival"},
      {"measurement": "neuronal cell death / protection against ischemia, 24 hours after ischemia", "setting": "mouse cortical neurons [4]; mouse cortical neurons, vs non-treated neurons undergoing ischemia, applied before ischemia or during reperfusion", "value": "protects neurons from ischemia; also recorded: significantly decreases neuronal cell death; also recorded: protects against different degrees of ischemia both when applied before or after the acute ischemic insult"},
      {"measurement": "protection of neurons in normoxia conditions", "setting": "mouse cortical neurons [4]; pretreatment with 2.5 mM", "value": "protects neurons against the adverse conditions inherent to an in vitro setting"},
      {"measurement": "protection of neurons in normoxia conditions", "setting": "mouse cortical neurons [4]; pretreatment with 5 mM", "value": "protects neurons against the adverse conditions inherent to an in vitro setting"},
      {"measurement": "extension of the ischemia and cell death", "setting": "Mice [5]", "value": "reduce the extension of the ischemia and cell death"},
      {"measurement": "necrosis (LDH activity, area of necrosis)", "setting": "mouse hearts", "value": "reduced necrosis compared to controls"},
      {"measurement": "number of apoptotic nuclei and ischemic areas", "setting": "Rabbits", "value": "reduce the number of apoptotic nuclei and the ischemic areas"}
    ]}
  ]
}
